Assay [1] addresses T1, Mcl-1/Bim interaction, recombinant human Mcl-1 (171-327) (Homo sapiens, UniProt Q07820).
T1 construct: made in house
Kind of assay: Cell free Mcl-1: Bim Affinity Assay (Mcl-1 HTRF). Type of assay: binding. A digest of the protocol: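 Read-out is time-resolved FRET after overnight incubation, using a biotin-labelled peptide from human Bim (51-76) as the binding partner; IC50 was derived from competition curves.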
(In general: TR-FRET usually uses a lanthanide donor and a delayed reading to cut background.)

Assay [2] relates to OPM-2 human multiple myeloma cell line. The assay can be described thus: Cell Viability Assay (OPM-2 10 FBS). In kind it is cell-based. To be noted: OPM-2 cells, CellTiter-Glo. The method in brief:
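IC50 from 4-parameter logistic fit of CellTiter-Glo luminescence. 3000 cells/well, 10% FBS medium, serial compound dilutions, 16 h, 37 °C/5% CO2; read 25 min post-reagent.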
A general note: In ATP-based viability assays light output follows the ATP content of the culture.

[3] abbreviates: TR-FRET, 0.1 nM Mcl-1 (171-327), 0.05 nM biotin-Bim (51-76).
Where [4] appears, read: Homo sapiens, OPM-2, 16 h, 16 h incubation.
Setting [5] is: Homo sapiens, OPM-2, 16 h, 16 h.
The mark [6] stands for this setting: cell free Mcl-1:Bim TR-FRET, recombinant human Mcl-1 (171-327).

Each structure is given as a SMILES string.

T1 sequence (Q07820 171-327): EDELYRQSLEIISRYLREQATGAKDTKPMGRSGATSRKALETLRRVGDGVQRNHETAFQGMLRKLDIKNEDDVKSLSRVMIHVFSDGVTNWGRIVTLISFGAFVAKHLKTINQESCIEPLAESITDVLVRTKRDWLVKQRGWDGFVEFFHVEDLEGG

For orientation: IC50 means the concentration needed to halve the response being measured. Turning to `CCOC(=O)CO[C@H]1/C=C/CC[C@@H](CC)S(=O)(=O)NC(=O)c2ccc3c(c2)N(C[C@@H]2CC[C@H]21)C[C@@]1(CCCc2cc(Cl)ccc21)CO3` [Example 1003, ethyl (((1S,3′R,6′R,7′S,8′E,12′R)-6-chloro-12′-ethyl-13′,13′-dioxido-15′-oxo-3,4-dihydro-2H-spiro[naphthalene-1,22′-[20]oxa[13]thia[1,14]diazatetracyclo[14.7.2.0^3,6.0^19,24]pentacosa [8,16,18,24]tetraen]-7′-yl)oxy)acetate], the figures for the IC50 in assay [1] (setting [3]) and in assay [2] (setting [4]) were 0.000844 µM and 0.273 µM, respectively.
With `C[C@@H]1C/C=C/[C@H](O)[C@@H]2CC[C@H]2CN2C[C@@]3(CCCc4cc(Cl)ccc43)COc3ccc(cc32)C(=O)NS(=O)(=O)N1C[C@H]1CCCO1` [Example 55, (1S,3′R,6′R,7′S,8′E,11R)-6-chloro-7′-hydroxy-11′-methyl-12′-((2R)-tetrahydro-2-furanylmethyl)-3,4-dihydro-2H,15′H-spiro[naphthalene-1,22′-[20]oxa[13]thia[1,12,14]triazatetracyclo[14.7.2.0^3,6.0^19,24]pentacosa[8,16,18,24]tetraen]-15′-one 13′,13′-dioxide], the half-maximal inhibitory concentration (IC50) stood at 0.00625 µM in assay [1] (setting [3]) and 2.38 µM in assay [2] (setting [5]).
The corresponding values for `COCCOC1C=CCC(C)C(COC)S(=O)(=O)NC(=O)c2ccc3c(c2)N(CC2CCC21)CC1(CCCc2cc(Cl)ccc21)CO3` (single isomer, unassigned) [Example 463] are 0.000416 µM and 0.122 µM.
The matching figures for `C[C@H]1C/C=C/[C@H](O)[C@@H]2CC[C@H]2CN2C[C@@]3(CCCc4cc(Cl)ccc43)COc3ccc(cc32)C(=O)NS(=O)(=O)N1CC1CC1` [Example 28, (1S,3′R,6′R,7′S,8′E,11′S)-6-chloro-12′-(cyclopropylmethyl)-7′-hydroxy-11′-methyl-3,4-dihydro-2H,15′H-spiro[naphthalene-1,22′-[20]oxa[13]thia[1,12,14]triazatetracyclo[14.7.2.0^3,6.0^19,24]pentacosa[8,16,18,24]tetraen]-15′-one 13,13′-dioxide]: 0.0008 µM and 1.7 µM.
With `CC[C@@H](O[C@H]1/C=C/C[C@H](C)[C@@H](C)S(=O)(=O)NC(=O)c2ccc3c(c2)N(C[C@@H]2CC[C@H]21)C[C@@]1(CCCc2cc(Cl)ccc21)CO3)C(=O)N(C)C` (single isomer, unassigned) [Example 431], the results for the IC50 in assay [1] (setting [3]) and in assay [2] (16 h) were 0.000512 µM and 0.14 µM, respectively.
Regarding `COCC1CC(C)C=CC(O)C2CCC2CN2CC3(CCCc4cc(Cl)ccc43)COc3ccc(cc32)C(=O)NS1(=O)=O` (single isomer, unassigned) [Example 471], the IC50 is 0.000188 µM in assay [1] (setting [6]) and 0.141 µM in assay [2] (setting [5]).
As to `C[C@@H]1CC/C=C/[C@H](O[C@H]2CCOC2=O)[C@@H]2CC[C@H]2CN2C[C@@]3(CCCc4cc(Cl)ccc43)COc3ccc(cc32)C(=O)NS1(=O)=O` [Example 413], the IC50 in assay [1] (setting [3]) is 0.000358 µM; in assay [2] (setting [5]), 0.374 µM.
The corresponding values for `C[C@@H]1C/C=C\[C@H](O)[C@@H]2CC[C@H]2CN2C[C@@]3(CCCc4cc(Cl)ccc43)COc3ccc(cc32)C(=O)NS(=O)(=O)N1C[C@H]1CCCO1` (single isomer, unassigned) [Example 56] are 0.00304 µM and 1.79 µM.
As to `O=C1NS(=O)(=O)[C@H](c2ccccn2)CC/C=C/[C@H](O)[C@@H]2CC[C@H]2CN2C[C@@]3(CCCc4cc(Cl)ccc43)COc3ccc1cc32` (single isomer, unassigned) [Example 692], the IC50 in assay [1] (setting [6]) amounted to 0.0006 µM; in assay [2] (16 h), 1.52 µM.
As for `CO[C@H]1/C=C/C[C@H](CF)[C@@H](C)S(=O)(=O)NC(=O)c2ccc3c(c2)N(C[C@@H]2CC[C@H]21)C[C@@]1(CCCc2cc(Cl)ccc21)CO3` [Example 5, (1S,3′R,6′R,7′S,8′E,11′R,12′R)-6-chloro-11′-(fluoromethyl)-7′-methoxy-12′-methyl-3,4-dihydro-2H,15′H-spiro[naphthalene-1,22′-[20]oxa[13]thia[1,14]diazatetracyclo[14.7.2.0^3,6.0^19,24]pentacosa [8,16,18,24]tetraen]-15′-one 13′,13′-dioxide], the IC50 was determined as 0.00054 µM in assay [1] (setting [3]) and 0.329 µM in assay [2] (setting [5]).
Turning to `CC(C)OC(=O)C[C@@H]1[C@@H](C)/C=C\C[C@H](O)[C@@H]2CC[C@H]2CN2C[C@@]3(CCCc4cc(Cl)ccc43)COc3ccc(cc32)C(=O)NS1(=O)=O` [Example 569], the IC50 in assay [1] (setting [6]) is 0.00102 µM; in assay [2] (setting [5]), 0.759 µM.
In the case of `C[C@@H]1[C@@H](C)C/C=C/[C@H](OC[C@@H](C)O)[C@@H]2CC[C@H]2CN2C[C@@]3(CCCc4cc(Cl)ccc43)COc3ccc(cc32)C(=O)NS1(=O)=O` (single isomer, unassigned) [Example 528], the IC50 in assay [1] (setting [6]) amounted to 0.000253 µM; in assay [2] (16 h) it was 0.0696 µM.
`C[C@@H]1[C@@H](C)S(=O)(=O)NC(=O)c2ccc3c(c2)N(C[C@@H]2CC[C@H]2[C@@H](O)/C=C/[C@@H]1C)C[C@@]1(CCCc2cc(Cl)ccc21)CO3` (single isomer, unassigned) [Example 1041]: the IC50 in assay [1] (setting [3]) worked out at 0.000183 µM; in assay [2] (setting [4]), 0.0772 µM.
`O=C1NS(=O)(=O)N2CCOC[C@H]2C/C=C\[C@H](O)[C@@H]2CC[C@H]2CN2C[C@@]3(CCCc4cc(Cl)ccc43)COc3ccc1cc32` (single isomer, unassigned) [Example 344]: the IC50 was determined as 0.00211 µM in assay [1] (setting [3]) and 0.911 µM in assay [2] (setting [5]).
As for `C[C@@H]1[C@@H](C)S(=O)(=O)NC(=O)c2ccc3c(c2)N(C[C@@H]2CC[C@H]2[C@@H](OCC(=O)N(C)C)/C=C/[C@@H]1C)C[C@@]1(CCCc2cc(Cl)ccc21)CO3` [Example 1052, 2-(((1S,3′R,6′R,7′S,8′E,10′S,11′S,12′R)-6-chloro-10′,11′,12′-trimethyl-13′,13′-dioxido-15′-oxo-3,4-dihydro-2H-spiro[naphthalene-1,22′-[20]oxa[13]thia[1,14]diazatetracyclo[14.7.2.0^3,6.0^19,24]pentacosa [8,16,18,24]tetraen]-7′-yl)oxy)-N,N-dimethylacetamide], the values for the IC50 in assay [1] (setting [3]) and in assay [2] (setting [4]) were 0.00011 µM and 0.0957 µM, respectively.
With `O=C1NS(=O)(=O)CCC/C=C/[C@@H](O)[C@@H]2CC[C@H]2CN2C[C@@]3(CCCc4cc(Cl)ccc43)COc3ccc1cc32` [Example 952, (1S,3′R,6′R,7′R,8′E)-6-chloro-7′-hydroxy-3,4-dihydro-2H,15′H-spiro[naphthalene-1,22′-[20]oxa[13]thia[1,14]diazatetracyclo[14.7.2.0^3,6.0^19,24]pentacosa [8,16,18,24]tetraen]-15′-one 13′,13′-dioxide], the IC50 is 0.00128 µM in assay [1] (setting [3]) and 6.38 µM in assay [2] (Homo sapiens, 16 h incubation).
Consider `CO[C@H]1/C=C/CC[C@@H](C(=O)N(C)C)S(=O)(=O)NC(=O)c2ccc3c(c2)N(C[C@@H]2CC[C@H]21)C[C@@]1(CCCc2cc(Cl)ccc21)CO3` (single isomer, unassigned) [Example 452], for which the IC50 amounted to 0.000277 µM in assay [1] (setting [3]) and 0.775 µM in assay [2] (16 h).
Turning to `COCCO[C@H]1/C=C/C[C@H](C)[C@@H](CC(F)(F)F)S(=O)(=O)NC(=O)c2ccc3c(c2)N(C[C@@H]2CC[C@H]21)C[C@@]1(CCCc2cc(Cl)ccc21)CO3` (single isomer, unassigned) [Example 669], the IC50 is 0.00137 µM in assay [1] (setting [6]) and 0.272 µM in assay [2] (16 h).
In the case of `CC1C=CC(O)C2CCC2CN2CC3(CCCc4cc(Cl)ccc43)COc3ccc(cc32)C(=O)NS(=O)(=O)C1` (single isomer, unassigned) [Example 165], the IC50 came to 0.0038 µM in assay [1] (setting [3]) and 25 µM in assay [2] (setting [5]).
Regarding `O=C1NS(=O)(=O)C2CC2CC=CC(O)C2CCC2CN2CC3(CCCc4cc(Cl)ccc43)COc3ccc1cc32` (single isomer, unassigned) [Example 796], the IC50 stood at 0.00045 µM in assay [1] (setting [6]) and 0.195 µM in assay [2] (16 h).
For the molecule `Cc1nc(CO[C@H]2/C=C/CC[C@@H](C)S(=O)(=O)NC(=O)c3ccc4c(c3)N(C[C@@H]3CC[C@H]32)C[C@@]2(CCCc3cc(Cl)ccc32)CO4)no1` [Example 603, (1S,3′R,6′R,7′S,8′E,12′R)-6-chloro-12′-methyl-7′-((5-methyl-1,2,4-oxadiazol-3-yl)methoxy)-3,4-dihydro-2H,15′H-spiro[naphthalene-1,22′-[20]oxa[13]thia[1,14]diazatetracyclo[14.7.2.0^3,6.0^19,24]pentacosa [8,16,18,24]tetraen]-15′-one 13′,13′-dioxide], the IC50 in assay [1] (setting [6]) was 0.000667 µM; in assay [2] (setting [5]) it was 0.439 µM.
In the case of `O=C1NS(=O)(=O)[C@H](Cc2nccs2)CC/C=C\[C@H](O)[C@@H]2CC[C@H]2CN2C[C@@]3(CCCc4cc(Cl)ccc43)COc3ccc1cc32` (single isomer, unassigned) [Example 374], the IC50 in assay [1] (setting [3]) came out at 0.00286 µM; in assay [2] (16 h) it was 2.94 µM.
For `C[C@@H]1[C@@H](C)C/C=C/[C@H](OCC(=O)N2CC(O)(C(F)(F)F)C2)[C@@H]2CC[C@H]2CN2C[C@@]3(CCCc4cc(Cl)ccc43)COc3ccc(cc32)C(=O)NS1(=O)=O` [Example 306, (1S,3′R,6′R,7′S,8′E,11′S,12′R)-6-chloro-7′-(2-(3-hydroxy-3-(trifluoromethyl)-1-azetidinyl)-2-oxoethoxy)-11′,12′-dimethyl-3,4-dihydro-2H,15′H-spiro[naphthalene-1,22′-[20]oxa[13]thia[1,14]diazatetracyclo[14.7.2.0^3,6.0^19,24]pentacosa [8,16,18,24]tetraen]-15′-one 13′,13′-dioxide], the IC50 in assay [1] (setting [3]) turned out to be 0.0012 µM; in assay [2] (setting [5]) it was 1.14 µM.

Values taken from patent US12091425B2 (AMGEN INC., priority 2016, dated 2024).
